Assay results: patent US12121530B2, “Composition and methods for treating articulating joint disorders with nucleoside reverse transcriptase inhibitors” (RHODE ISLAND HOSPITAL, priority 2018, dated 2024)
Entries after “also recorded” stand apart in the source; their conditions may differ.

Experiments:
[1] = system: C28 transiently over-express miR-365; test: C28 transiently over-expressing miR-365 treated with 3TC, RT-qPCR; type: cell-based, human
Method: Cells were seeded onto desired size plates to reach 70-90% confluence and transfected with miR-365 mimic or miRNA mimic negative control or miR-365 inhibitor or inhibitor negative control (Dharmacon®, Lafayette, Colo., USA). Lipofectamine 3000 (Invitrogen®, Waltham, Mass., USA) was used as transfection reagents. Medium is changed 24 hrs after transfection. 48 hrs post transfection, cells were lysated in either QIAzol for RNA purification and real-time PCR analysis or ice-cold lysis buffer containing protease inhibitor and phosphatase inhibitor for western blot analysis. MiR-365 mimic, miRNA mimic negative control, miR-365 inhibitor and inhibitor negative control were typically used at a final concentration of 25 nM unless otherwise stated.
(§1) Both miRNA and mRNA were extracted using miRNeasy Mini Kit (Qiagen®, Germantown, Md., USA) and reversely transcribed using miScriptIIRT Kit (Qiagen®, Germantown, Md., USA) according to manufacturer's instruction. qPCR was performed using SYBR Green PCR master mix (Qiagen®, Germantown, Md., USA) on a Bio-Rad CFX96 real-time PCR detection system (Bio-Rad®, Hercules, Calif., USA). Amplification conditions are as follows: 95° C. for 10 min, 40 cycles of 95° C. for 10″, 55° C. for 30″, and 72° C. for 30″. 18S ribosomal or GAPDH RNA was used as an internal control gene to normalize the mRNAs level. The ubiquitously expressed snRNA U6 was used as an endogenous control for miRNAs level. Primers were synthesized by Integrated DNA Technologies (http://www.idtdna.com). The primers for miR-365 were purchased from Qiagen. Fold changes of mRNA and miRNAs were calculated by the 2^^(ΔΔCt) method and normalized to 18S/GAPDH or U6 snRNA, respectively.

[2] = system: 129S6/SvEv mice; test: DMM induced OA (PTOA) in 129S6/SvEv mice, oral 3TC or FTC; type: in vivo, mouse; details: for Adamts5 mRNA in cartilage / Col10 (Col 10a1) mRNA in cartilage / Line-1 level in cartilage / Mmp13 mRNA in cartilage / miR-365 induction by DMM: DMM mice, qPCR, versus Saline; for body weights, drug versus control treatment groups: DMM or Sham mice, drug in water from 8 weeks old for 4 weeks; for DMM induced proteoglycan loss in surgical knees: histology, drug in water for 4 weeks; for DMM induced OA / cartilage joint degeneration (Safranin O, OARSI quantification): oral administration for 1 month from 2-month-old
Excerpt: 12956/SvEv strain male mice were purchased from Taconic (https://www.taconic.com/mouse-model/129s6) at their age of 7-week-old. At least 3-day (72-hrs) acclimation period must be given to mice before any further procedures occurred to them. All 12956/SvEv strain mice throughout the studies were male.
129S6/SvEv male mice were chosen for experimental subjects at their age of 8-week-old. To create mouse injury/trauma induced OA model, medial meniscus ligament was transected using a previously described method (Lohmander, L. S., et al. Am J Sports Med 35, 1756-1769 (2007)). Briefly, 8-week-old male mice were anesthetized using either intraperitoneal (IP) injection of Ketamine/Dexmedetomidine or isoflurane to carry out medial parapatellar arthrotomy. Transection was made with a stab knife (Sharpoint™, Cat. 72-1551). At Weeks 12, mice were euthanized and dissected for histological examination as well as cartilage RNA extraction. 12 mice were used for each group/time point.
Paraffin sections were de-paraffinized in 2 changes of xylene, 10 mins each, followed by re-hydration in 2 changes of 100% alcohol, 5 mins each; 2 changes of 95% alcohol, 5 mins each; 70% alcohol for 5 mins. Sections were then rinsed in running tap water for 2 mins before stained with 0.4% fast green solution (Sigma, Cat. F-7258, St. Louis, Mo. 63103 USA) for 2 mins however the latter timing must be empirically controlled to assure desired coloration. Stained sections were then quickly rinsed with 1% acetic acid solution (Sigma, Cat. 695092-500ML-GL, St. Louis, Mo. 63103 USA) for no more than 10-15 sec. 0.1% Safranin O Solution was used for staining proteoglycan however the actual timing must be carefully determined based on actual coloring condition, for maximally 10 mins. After Safranin O staining, sections were submerged in 2 changes of 95% alcohol, 2 mins each, 2 changes of 100% alcohol, 2 mins each for de-hydration. Lastly, sections were cleared in 2 changes of xylene, 2 mins each, and mounted using resinous mounting medium (ACRYMOUNT™, Cat. SL80-4, McKinney, Tex. 75069 USA).
To histologically evaluate OA severity, we quantified Safranin O stained knee sections according to OARSI semi-quantitative system as previously described^3.
as §1

[3] = system: miR-365 Tg mice; test: primary OA model: miR-365 Tg mice given oral 3TC for 4 months; type: in vivo, mouse; details: for tibial subchondral BV/TV / connectivity density of subchondral bone / trabecular number of subchondral bone / trabecular separation of subchondral bone: microCT
[4] = system: human chondrocyte cell line-C28; test: gene expression in human chondrocyte cell line C28 treated with 3TC; type: cell-based
Method: as §1, with “respectively. […]” for “respectively.”

[5] = human chondrocytes over-expressing miR-365, various concentrations
[6] = miR-365 Tg mice, 3TC for 4 months, RT-qPCR
[7] = miR-365 Tg mice, 3TC for four months
[8] = human chondrocytes C28, RNA level, various dosages

Q: Which “ACAN suppression by miR-365” value [1, 5] does the source give for Nc1ccn([C@@H]2CS[C@H](CO)O2)c(=O)n1 [3TC, lamivudine] here?
A: Its value is “rectifies”.

Q: And the “miR-365 induced up-regulation of ADAMTS5” value [1, 5]?
A: The value was “completely abolishes”.

Q: And the “miR-365 induced up-regulation of COL10” value [1, 5]?
A: The value was “completely abolishes”.

Q: And the “miR-365 induced up-regulation of IHH” value [1, 5]?
A: The value was “completely abolishes”.

Q: What about the “miR-365 induced up-regulation of LINE-1” value [1, 5] of the same compound?
A: Its value is “completely abolishes”.

Q: What about the “effect of miR-365 on L1, ADAMTS5, IHH, COL10A1 and ACAN levels” value ([1]; miR-365 transfected human chondrocytes (FIG. 3O-3T)) of the same compound?
A: The value was “abolished and in some cases even reversed”.

Q: And the “Adamts5 mRNA in cartilage” value [2]?
A: The value was “significantly repressed”.

Q: And the “Col10 (Col 10a1) mRNA in cartilage” value [2]?
A: Its value is “significantly repressed”.

Q: And the “Line-1 level in cartilage” value [2]?
A: Its value is “inhibition”.

Q: And the “Mmp13 mRNA in cartilage” value [2]?
A: Its value is “significantly repressed”.

Q: What about the “miR-365 induction by DMM” value [2] of the same compound?
A: The value was “significantly prohibit”.

Q: And the “body weights, drug versus control treatment groups” value [2]?
A: Its value is “No appreciable difference”.

Q: What about the “DMM induced proteoglycan loss in surgical knees” value [2] of the same compound?
A: The value was “effectively prevent”.

Q: What about the “DMM induced OA / cartilage joint degeneration (Safranin O, OARSI quantification)” value [2] of the same compound?
A: Its value is “significantly prevented; also recorded: significantly inhibited”.

Q: And the “early onset of OA / OA pathogenesis (Safranin O staining, OARSI quantification)” value ([3]; 6-month-old miR-365 Tg mice, 3TC for 4 months)?
A: Its value is “abolished; also recorded: prevented early onset of OA”.

Q: And the “tibial subchondral BV/TV” value ([3]; Cre control mice, 3TC 4 months)?
A: Its value is “did not alter”.

Q: What about the “connectivity density of subchondral bone” value ([3]; Cre mice, 3TC 4 months) of the same compound?
A: The value was “increased”.

Q: What about the “trabecular number of subchondral bone” value ([3]; Cre mice, 3TC 4 months) of the same compound?
A: Its value is “increased”.

Q: What about the “trabecular separation of subchondral bone” value ([3]; Cre mice, 3TC 4 months) of the same compound?
A: The value was “decreased”.

Q: What about the “subchondral BMD” value ([3]; miR-365 Tg mice, 3TC 4 months) of the same compound?
A: Its value is “without decreasing”.

Q: What about the “connectivity density of subchondral bone” value ([3]; miR-365 Tg mice, 3TC 4 months) of the same compound?
A: The value was “no effect”.

Q: What about the “tibial subchondral BV/TV” value ([3]; miR-365 Tg mice, 3TC 4 months) of the same compound?
A: The value was “did not alter”.

Q: And the “trabecular number of subchondral bone” value ([3]; miR-365 Tg mice, 3TC 4 months)?
A: Its value is “no effect”.

Q: What about the “trabecular separation of subchondral bone” value ([3]; miR-365 Tg mice, 3TC 4 months) of the same compound?
A: The value was “no effect”.

Q: And the “Acan levels in articular cartilage” value [3, 6]?
A: Its value is “unchanged”.

Q: And the “Adamts5 expression in articular cartilage” value [3, 6]?
A: Its value is “significantly inhibited; also recorded: significantly suppressed”.

Q: What about the “Alu expression in articular cartilage” value [3, 6] of the same compound?
A: The value was “significantly suppressed”.

Q: What about the “Col10 (Col10a1) expression in articular cartilage” value [3, 6] of the same compound?
A: The value was “significantly inhibited; also recorded: significantly suppressed”.

Q: What about the “Inf-α expression in articular cartilage” value [3, 6] of the same compound?
A: Its value is “significantly inhibited”.

Q: What about the “Line-1 (Line-1-ORF2) expression in articular cartilage” value [3, 6] of the same compound?
A: The value was “significantly inhibited; also recorded: abolished; also recorded: significantly suppressed”.

Q: And the “Sqstm1 expression in articular cartilage” value [3, 6]?
A: The value was “inhibition was abolished; also recorded: significantly up-regulated”.

Q: What about the “Zc3hav1 (Zac3hav1) expression in articular cartilage” value [3, 6] of the same compound?
A: The value was “inhibition was abolished; also recorded: significantly up-regulated”.

Q: What about the “Dicer mRNA level in cartilage” value [3, 7] of the same compound?
A: Its value is “inhibition was abolished”.

Q: What about the “Prkdc mRNA level in cartilage” value [3, 7] of the same compound?
A: The value was “inhibition was abolished”.

Q: And the “miR-365 expression in articular cartilage” value ([3]; miR-365 Tg mice, oral 3TC for 4 months, RT-qPCR)?
A: Its value is “abolished; also recorded: significantly suppressed”.

Q: And the “Ihh expression in vivo” value ([3]; mice treated with 3TC from 2-month old till 6-month old)?
A: The value was “suppresses only Line-1 but not Ihh”.

Q: And the Acan expression [4, 8]?
A: Its Acan expression is “promotes; also recorded: stimulated”.

Q: What about the Adamts5 expression [4, 8] of the same compound?
A: The Adamts5 expression was “inhibited”.

Q: What about the “COL10 (COL10A1) expression” value [4, 8] of the same compound?
A: The value was “inhibited”.

Q: And the IHH expression [4, 8]?
A: Its IHH expression is “inhibits”.

Q: What about the Line-1 expression [4, 8] of the same compound?
A: Its Line-1 expression is “inhibited”.

Q: What about the MMP13 expression [4, 8] of the same compound?
A: Its MMP13 expression is “inhibited”.

Q: What about the COL2A1 expression ([4]; human chondrocytes, RNA level) of the same compound?
A: The COL2A1 expression was “stimulated”.

Q: How did the “Adamts5 mRNA in cartilage” value [2] turn out when Nc1nc(=O)n([C@@H]2CS[C@H](CO)O2)cc1F [FTC, 2′,3′-dideoxy-5-fluoro-3′-thiacytidine] was run?
A: Its value is “significantly repressed”.

Q: What about the “Col10 (Col 10a1) mRNA in cartilage” value [2] of the same compound?
A: Its value is “significantly repressed”.

Q: What about the “Line-1 level in cartilage” value [2] of the same compound?
A: Its value is “inhibition”.

Q: What about the “Mmp13 mRNA in cartilage” value [2] of the same compound?
A: Its value is “significantly repressed”.

Q: And the “miR-365 induction by DMM” value [2]?
A: Its value is “significantly prohibit”.

Q: And the “body weights, drug versus control treatment groups” value [2]?
A: The value was “No appreciable difference”.

Q: What about the “DMM induced proteoglycan loss in surgical knees” value [2] of the same compound?
A: The value was “effectively prevent”.

Q: What about the “DMM induced OA / cartilage joint degeneration (Safranin O, OARSI quantification)” value [2] of the same compound?
A: The value was “significantly prevented; also recorded: significantly inhibited”.
